ChEMBL document CHEMBL5291721, “A preclinical secondary pharmacology resource illuminates target-adverse drug reaction associations of marketed drugs” (Nat Commun, 2023)

Columns and labels:
[1] = biological target: Beta-3 adrenergic receptor (Homo sapiens, UniProt P13945)
Progesterone receptor = biological target: T1, Progesterone receptor (Homo sapiens, UniProt P06401)
T1 sequence (P06401 whole entry): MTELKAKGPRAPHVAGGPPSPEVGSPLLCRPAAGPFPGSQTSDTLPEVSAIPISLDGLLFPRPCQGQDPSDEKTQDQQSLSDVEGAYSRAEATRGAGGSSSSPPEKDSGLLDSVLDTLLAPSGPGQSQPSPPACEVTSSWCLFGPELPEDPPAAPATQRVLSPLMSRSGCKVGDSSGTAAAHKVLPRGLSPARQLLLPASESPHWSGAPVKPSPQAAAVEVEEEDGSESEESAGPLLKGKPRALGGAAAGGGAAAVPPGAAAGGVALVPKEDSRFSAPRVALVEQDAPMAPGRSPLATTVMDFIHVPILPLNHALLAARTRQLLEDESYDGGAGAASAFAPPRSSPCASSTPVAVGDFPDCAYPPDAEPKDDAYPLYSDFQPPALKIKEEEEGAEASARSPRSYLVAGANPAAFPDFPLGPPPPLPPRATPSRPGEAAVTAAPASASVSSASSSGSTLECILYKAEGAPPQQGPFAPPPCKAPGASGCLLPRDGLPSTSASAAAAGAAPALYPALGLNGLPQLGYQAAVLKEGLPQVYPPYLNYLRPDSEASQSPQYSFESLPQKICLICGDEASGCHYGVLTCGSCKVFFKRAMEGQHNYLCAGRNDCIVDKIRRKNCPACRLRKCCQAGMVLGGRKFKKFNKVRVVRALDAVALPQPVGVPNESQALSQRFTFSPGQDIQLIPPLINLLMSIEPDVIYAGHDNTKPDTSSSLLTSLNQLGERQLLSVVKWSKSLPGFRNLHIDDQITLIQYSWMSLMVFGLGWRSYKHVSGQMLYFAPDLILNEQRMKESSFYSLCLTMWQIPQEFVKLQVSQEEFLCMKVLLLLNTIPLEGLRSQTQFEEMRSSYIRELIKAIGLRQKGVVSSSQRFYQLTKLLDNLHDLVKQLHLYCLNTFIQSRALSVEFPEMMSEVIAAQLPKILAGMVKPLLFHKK

B1 bradykinin receptor = biological target: T2, B1 bradykinin receptor (Homo sapiens, UniProt P46663)
T2 sequence (P46663 whole entry): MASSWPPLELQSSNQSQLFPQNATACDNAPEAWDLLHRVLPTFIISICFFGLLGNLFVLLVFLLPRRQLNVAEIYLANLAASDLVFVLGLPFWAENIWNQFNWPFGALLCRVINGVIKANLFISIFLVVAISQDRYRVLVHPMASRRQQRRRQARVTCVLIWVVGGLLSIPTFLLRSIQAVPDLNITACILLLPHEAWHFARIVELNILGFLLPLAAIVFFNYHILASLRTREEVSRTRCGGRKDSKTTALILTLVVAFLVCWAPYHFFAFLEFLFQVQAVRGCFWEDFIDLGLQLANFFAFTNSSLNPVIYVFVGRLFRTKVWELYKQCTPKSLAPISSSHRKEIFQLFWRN

[2] = biological target: T3, Alpha-2A adrenergic receptor (Homo sapiens, UniProt P08913)
T3 sequence (P08913 whole entry): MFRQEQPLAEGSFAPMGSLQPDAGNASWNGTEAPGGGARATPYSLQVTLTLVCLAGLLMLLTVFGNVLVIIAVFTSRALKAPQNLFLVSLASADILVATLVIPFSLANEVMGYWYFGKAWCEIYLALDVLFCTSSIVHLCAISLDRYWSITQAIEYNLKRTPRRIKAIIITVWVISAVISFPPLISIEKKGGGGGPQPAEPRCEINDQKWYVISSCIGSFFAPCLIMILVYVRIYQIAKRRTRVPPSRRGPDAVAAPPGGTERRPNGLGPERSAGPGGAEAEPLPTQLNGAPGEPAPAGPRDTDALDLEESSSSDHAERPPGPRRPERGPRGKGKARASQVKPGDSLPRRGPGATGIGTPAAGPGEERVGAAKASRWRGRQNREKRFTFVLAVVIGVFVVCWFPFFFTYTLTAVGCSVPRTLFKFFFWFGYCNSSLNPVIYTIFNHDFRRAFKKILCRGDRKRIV

[3] = biological target: T4, Gastric inhibitory polypeptide receptor (Homo sapiens, UniProt P48546)
T4 sequence (P48546 whole entry): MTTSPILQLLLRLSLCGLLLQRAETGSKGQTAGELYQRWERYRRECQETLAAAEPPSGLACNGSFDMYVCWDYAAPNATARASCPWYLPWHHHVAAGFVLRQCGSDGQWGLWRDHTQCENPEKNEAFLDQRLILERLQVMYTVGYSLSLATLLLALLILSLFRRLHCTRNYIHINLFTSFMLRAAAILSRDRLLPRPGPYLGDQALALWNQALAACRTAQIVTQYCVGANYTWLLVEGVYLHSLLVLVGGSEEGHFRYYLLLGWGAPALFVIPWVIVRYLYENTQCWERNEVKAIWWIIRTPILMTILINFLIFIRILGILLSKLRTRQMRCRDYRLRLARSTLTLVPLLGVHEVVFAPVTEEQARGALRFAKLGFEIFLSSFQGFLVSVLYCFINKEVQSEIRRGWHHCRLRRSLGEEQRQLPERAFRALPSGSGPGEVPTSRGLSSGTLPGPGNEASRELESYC

Substance-P receptor = Substance-P receptor (Homo sapiens, UniProt P25103)
[4] = biological target: T5, Endothelin receptor type B (Homo sapiens, UniProt P24530)
T5 sequence (P24530 whole entry): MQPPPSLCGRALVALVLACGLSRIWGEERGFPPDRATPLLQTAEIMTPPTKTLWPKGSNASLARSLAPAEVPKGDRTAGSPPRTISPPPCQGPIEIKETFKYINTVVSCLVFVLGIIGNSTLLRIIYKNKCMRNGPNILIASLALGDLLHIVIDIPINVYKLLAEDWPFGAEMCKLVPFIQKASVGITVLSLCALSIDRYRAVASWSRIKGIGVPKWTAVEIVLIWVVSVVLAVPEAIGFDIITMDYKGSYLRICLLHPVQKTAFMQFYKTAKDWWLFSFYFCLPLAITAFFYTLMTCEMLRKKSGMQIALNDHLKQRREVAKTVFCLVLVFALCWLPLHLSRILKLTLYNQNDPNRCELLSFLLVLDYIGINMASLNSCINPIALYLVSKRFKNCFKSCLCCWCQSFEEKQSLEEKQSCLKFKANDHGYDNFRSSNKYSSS
Further: assay procedure not described here.

Chain of Beta-3 adrenergic receptor (P13945 whole entry): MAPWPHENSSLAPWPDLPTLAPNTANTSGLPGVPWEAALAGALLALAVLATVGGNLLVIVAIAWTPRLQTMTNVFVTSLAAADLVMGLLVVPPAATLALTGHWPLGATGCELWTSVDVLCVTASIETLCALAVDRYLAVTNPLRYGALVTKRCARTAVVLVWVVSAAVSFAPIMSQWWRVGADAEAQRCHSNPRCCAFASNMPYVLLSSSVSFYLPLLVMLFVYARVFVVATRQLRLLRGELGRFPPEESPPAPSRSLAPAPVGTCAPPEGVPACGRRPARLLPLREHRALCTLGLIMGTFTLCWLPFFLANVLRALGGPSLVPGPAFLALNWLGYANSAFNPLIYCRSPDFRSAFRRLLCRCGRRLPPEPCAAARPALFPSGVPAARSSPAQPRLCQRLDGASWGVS
Chain of Substance-P receptor (P25103 whole entry): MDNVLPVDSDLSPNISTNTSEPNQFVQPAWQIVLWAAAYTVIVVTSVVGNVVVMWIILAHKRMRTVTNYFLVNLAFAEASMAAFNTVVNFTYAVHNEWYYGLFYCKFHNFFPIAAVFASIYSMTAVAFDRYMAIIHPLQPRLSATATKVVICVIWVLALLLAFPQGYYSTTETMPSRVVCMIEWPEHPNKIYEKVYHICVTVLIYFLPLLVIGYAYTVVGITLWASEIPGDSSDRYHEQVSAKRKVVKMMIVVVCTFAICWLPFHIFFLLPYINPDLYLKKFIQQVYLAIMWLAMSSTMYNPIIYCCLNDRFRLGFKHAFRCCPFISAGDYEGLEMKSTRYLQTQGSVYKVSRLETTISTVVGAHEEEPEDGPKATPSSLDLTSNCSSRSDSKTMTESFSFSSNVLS

C[C@]1(COc2ccc(N3CCC(Oc4ccc(OC(F)(F)F)cc4)CC3)cc2)Cn2cc([N+](=O)[O-])nc2O1
AC50 [1]: > 30 µM | AC50 (Progesterone receptor): > 30 µM | AC50 (B1 bradykinin receptor): > 30 µM | AC50 [2]: > 10 µM | AC50 [3]: > 30 µM | AC50 (Substance-P receptor): > 10 µM | AC50 [4]: > 30 µM

C[C@]12CC[C@H](O)CC1=CC[C@@H]1[C@@H]2CC[C@]2(C)C(c3cccnc3)=CC[C@@H]12 [ABIRATERONE]
AC50 (Progesterone receptor): > 30 µM

CC(=O)OCC[N+](C)(C)C [ACETYLCHOLINE]
AC50 [1]: > 30 µM | AC50 (Progesterone receptor): > 30 µM | AC50 (B1 bradykinin receptor): > 30 µM | AC50 [2]: > 10 µM | AC50 [3]: > 30 µM | AC50 (Substance-P receptor): > 10 µM | AC50 [4]: > 30 µM

O=C(Nc1nc(-c2cc(Cl)cs2)c(N2CCN(C3CCCCC3)CC2)s1)c1cnc(N2CCC(C(=O)O)CC2)c(Cl)c1 [AVATROMBOPAG]
AC50 (B1 bradykinin receptor): > 10 µM | AC50 [2]: > 10 µM | AC50 (Substance-P receptor): > 10 µM | AC50 [4]: > 10 µM

C[C@H]1C[C@H]2[C@@H]3CCC4=CC(=O)C=C[C@]4(C)[C@@]3(Cl)[C@@H](O)C[C@]2(C)[C@@]1(O)C(=O)CO [BECLOMETHASONE]
AC50 [1]: > 30 µM | AC50 (Progesterone receptor): > 30 µM | AC50 (B1 bradykinin receptor): > 30 µM | AC50 [2]: > 10 µM | AC50 [3]: > 30 µM | AC50 (Substance-P receptor): > 10 µM | AC50 [4]: > 30 µM

COc1ccc2c(c1)[C@]13CCCC[C@@H]1[C@H](C2)N(C)CC3 [DEXTROMETHORPHAN]
AC50 [1]: > 30 µM | AC50 (Progesterone receptor): > 30 µM | AC50 (B1 bradykinin receptor): > 30 µM | AC50 [2]: 11.2 µM | AC50 [3]: > 30 µM | AC50 (Substance-P receptor): 6.94 µM | AC50 [4]: > 30 µM

CCn1cc(C(=O)O)c(=O)c2cc(F)c(N3CCNCC3)nc21 [ENOXACIN]
AC50 [1]: > 30 µM | AC50 (Progesterone receptor): > 30 µM | AC50 (B1 bradykinin receptor): > 30 µM | AC50 [2]: > 10 µM | AC50 [3]: > 30 µM | AC50 (Substance-P receptor): > 10 µM | AC50 [4]: > 30 µM

COCCCOc1ccnc(C[S+]([O-])c2nc3ccccc3[nH]2)c1C (stereo not drawn) [RABEPRAZOLE]
AC50 [1]: > 30 µM | AC50 (Progesterone receptor): > 30 µM | AC50 (B1 bradykinin receptor): > 30 µM | AC50 [2]: > 10 µM | AC50 [3]: > 30 µM | AC50 (Substance-P receptor): > 10 µM | AC50 [4]: > 30 µM

OCCN1CCN(CC/C=C2/c3ccccc3Sc3ccc(Cl)cc32)CC1 [ZUCLOPENTHIXOL]
AC50 [2]: 7.34 µM
